# Where two headings read alike, the source gives them in different places. Marks after values point to notes of the source that are not given here.
# Assays:
# [1] = target: T1, human recombinant receptor (PR) (Homo sapiens, UniProt P06401); experiment: PR binding, radioligand binding with [3H]-progesterone
# T1 sequence (P06401 1-933): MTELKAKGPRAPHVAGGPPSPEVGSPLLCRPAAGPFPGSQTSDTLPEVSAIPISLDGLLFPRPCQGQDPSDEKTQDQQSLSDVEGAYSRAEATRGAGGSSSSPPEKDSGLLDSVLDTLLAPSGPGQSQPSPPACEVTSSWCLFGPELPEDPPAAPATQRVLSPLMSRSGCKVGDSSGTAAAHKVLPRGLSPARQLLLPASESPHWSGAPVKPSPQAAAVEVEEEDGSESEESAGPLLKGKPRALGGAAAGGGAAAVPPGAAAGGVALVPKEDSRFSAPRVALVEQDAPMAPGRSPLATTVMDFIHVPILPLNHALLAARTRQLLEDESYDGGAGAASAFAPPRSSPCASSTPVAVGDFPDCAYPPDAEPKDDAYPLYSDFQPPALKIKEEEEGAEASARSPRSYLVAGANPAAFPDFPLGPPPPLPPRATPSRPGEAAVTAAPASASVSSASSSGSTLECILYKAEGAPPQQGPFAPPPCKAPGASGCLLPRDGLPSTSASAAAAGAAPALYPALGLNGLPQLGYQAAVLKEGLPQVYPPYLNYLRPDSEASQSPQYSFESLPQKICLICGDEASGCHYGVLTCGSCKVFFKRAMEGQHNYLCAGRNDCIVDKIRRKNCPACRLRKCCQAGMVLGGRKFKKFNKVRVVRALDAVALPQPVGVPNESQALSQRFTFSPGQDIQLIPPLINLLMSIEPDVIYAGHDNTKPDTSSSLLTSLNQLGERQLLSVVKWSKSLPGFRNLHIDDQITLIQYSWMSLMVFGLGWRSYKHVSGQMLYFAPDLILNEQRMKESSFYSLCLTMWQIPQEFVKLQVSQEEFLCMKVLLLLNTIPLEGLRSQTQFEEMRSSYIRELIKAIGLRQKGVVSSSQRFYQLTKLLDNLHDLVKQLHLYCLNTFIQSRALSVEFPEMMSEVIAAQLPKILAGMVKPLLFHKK
# Experimental: (§1) The methods are described by Gill et al. and Morgan et al., supra.
# PR binding was assessed using the same methods, using the human recombinant receptor and [^3H]-progesterone. IC50 values were determined from six-point concentration/inhibition curves performed in duplicate at semi-log concentrations.
# [2] = target: T2, native glucocorticoid receptors (Homo sapiens, UniProt P04150); experiment: Glucocorticoid reporter gene assay (GRE-luciferase) in SW1353 cells, GR antagonist activity; type: cell-based; details: for Ki: Ki=IC50/(1+[Dex]/EC50Dex); for IC50: 24 hours, in the presence of 50 nM dexamethasone
# T2 construct: cell line that expresses native glucocorticoid receptors; endogenous in cells; host or cells: SW1353 human chondrosarcoma cells, stably transfected only with a GRE-luciferase reporter
# T2 sequence (P04150 1-777): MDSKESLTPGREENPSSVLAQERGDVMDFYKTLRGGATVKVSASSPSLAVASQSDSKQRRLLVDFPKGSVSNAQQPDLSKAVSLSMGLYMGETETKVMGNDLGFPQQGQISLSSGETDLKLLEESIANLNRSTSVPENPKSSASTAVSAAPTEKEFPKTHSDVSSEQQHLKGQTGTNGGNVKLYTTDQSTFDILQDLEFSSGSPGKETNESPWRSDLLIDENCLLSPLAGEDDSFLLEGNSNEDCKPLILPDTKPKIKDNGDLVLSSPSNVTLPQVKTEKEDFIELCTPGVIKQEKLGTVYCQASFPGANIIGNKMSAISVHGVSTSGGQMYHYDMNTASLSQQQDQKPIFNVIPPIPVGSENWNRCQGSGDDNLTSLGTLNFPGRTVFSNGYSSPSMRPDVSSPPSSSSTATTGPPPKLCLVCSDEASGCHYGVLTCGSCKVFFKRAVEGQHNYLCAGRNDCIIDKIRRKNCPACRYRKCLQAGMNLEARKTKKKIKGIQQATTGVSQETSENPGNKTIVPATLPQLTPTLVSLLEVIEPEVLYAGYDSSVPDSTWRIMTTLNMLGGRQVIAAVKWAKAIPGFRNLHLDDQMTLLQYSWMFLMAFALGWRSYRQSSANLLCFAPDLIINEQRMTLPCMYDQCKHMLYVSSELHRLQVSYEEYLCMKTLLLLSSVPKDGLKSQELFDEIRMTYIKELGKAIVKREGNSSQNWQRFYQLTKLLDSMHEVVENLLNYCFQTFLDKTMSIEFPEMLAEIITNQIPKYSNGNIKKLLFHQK
# Text: Depending on the intended use and route of administration, various criteria may be used to determine a GR antagonist for use in the invention. […] The GR antagonism preferably negates more than 30%, more preferably more than 50%, and most preferably more than 90%, of the GR agonism at sites distant from the site of administration of the corticosteroid, and negates less than 70%, more preferably less than 50%, and most preferably less than 10%, of the GR agonism at the site of intended action of the corticosteroid.
# The glucocorticoid reporter gene assay was performed in SW1353 human chondrosarcoma cell line that expresses native glucocorticoid receptors (Morgan et al., supra), stably transfected with a vector containing a glucocorticoid-responsive element (GRE) linked to the firefly luciferase gene. […] Compounds were tested on two separate occasions to determine inter-assay variability.
# Ki values were calculated from the equation
# Ki=IC50/(1+[Dex]/EC50^Dex)
# [3] = target: T3, human recombinant receptor (GR) (Homo sapiens, UniProt P04150); experiment: GR binding, glucocorticoid radioligand binding with [3H]-dexamethasone
# T3 sequence (P04150 1-777): T2 sequence (P04150 1-777)
# Text: as §1
# rat skin = details: given subcutaneously or topically to the skin; cited from earlier work
# [4] = test system: Intraocular pressure (IOP); experiment: Intraocular pressure after a single eye drop in New Zealand White rabbits; type: in vivo; details: rabbit; for IOP at 3 hours, Mean (SEM) / IOP at 4 hours, Mean (SEM): 0.3% single eye drop; for decrease in IOP compared to vehicle-treated group: at 3 and 4 hours
# Experimental: Healthy female New Zealand White rabbits were tested in a randomized, blind, controlled study, with 6 animals per treatment group. They were acclimatized for 7 days prior to the start of the study. Intraocular pressure (IOP) was measured in both eyes pre-treatment and at intervals after instillation of a single eye drop of vehicle or test compound into the left eye of each animal, administered from a dropper bottle. The volume of each drop was approximately 60-65 microlitres. The vehicle was a sterile solution of 15% hydroxpropyl-β-cyclodextrin, 5% polyethylene glycol, 0.5% hydroxypropylmethylcellulose in deionised water, adjusted to pH 7 with HCl or NaOH as appropriate. […] IOP was measured using a Mentor Tonopen XL (Lim et al., 2005, Invest Opthalmol Vis Sci 46 2419-23), after topical administration of 0.5% proxymetacaine HCl local anaesthetic. Ten recordings per eye per time point were taken and a mean reading documented.
# intraocular pressure = details: rabbit, cited from earlier work
# [5] = target: GR receptors in the iris-ciliary body (Oryctolagus cuniculus, UniProt P59667); details: rabbit eye; cited from earlier work
# [6] = read-out: GR Antagonist Mean Ki
# GR receptors in the iris-ciliary body, sequence (P59667 whole entry): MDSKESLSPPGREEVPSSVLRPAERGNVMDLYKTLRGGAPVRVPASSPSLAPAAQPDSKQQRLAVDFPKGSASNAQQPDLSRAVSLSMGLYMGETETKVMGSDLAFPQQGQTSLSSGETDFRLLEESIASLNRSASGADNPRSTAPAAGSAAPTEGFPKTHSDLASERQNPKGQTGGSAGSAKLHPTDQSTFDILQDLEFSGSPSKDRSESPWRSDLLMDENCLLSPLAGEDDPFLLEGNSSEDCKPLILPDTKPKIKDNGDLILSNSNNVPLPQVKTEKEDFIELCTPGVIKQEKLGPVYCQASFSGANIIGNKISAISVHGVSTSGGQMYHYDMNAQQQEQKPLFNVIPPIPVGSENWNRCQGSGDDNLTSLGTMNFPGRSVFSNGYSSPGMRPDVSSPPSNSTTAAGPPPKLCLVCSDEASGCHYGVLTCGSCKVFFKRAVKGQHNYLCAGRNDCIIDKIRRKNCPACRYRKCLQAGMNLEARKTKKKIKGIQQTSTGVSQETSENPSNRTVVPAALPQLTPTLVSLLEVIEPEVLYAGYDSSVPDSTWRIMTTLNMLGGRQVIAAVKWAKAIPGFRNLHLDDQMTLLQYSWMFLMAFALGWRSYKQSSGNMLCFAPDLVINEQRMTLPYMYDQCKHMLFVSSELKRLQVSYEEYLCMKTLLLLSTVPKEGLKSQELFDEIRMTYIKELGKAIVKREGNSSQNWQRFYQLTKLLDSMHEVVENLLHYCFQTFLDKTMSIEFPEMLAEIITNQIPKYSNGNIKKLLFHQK
IC50 [1] [nM],Ki [1] [nM],Ki ([2]; GR Antagonist Mean Ki) [nM],IC50 [3] [nM],Ki [3] [nM],IC50 [2] [nM],"Ki [2, 6] [nM]",Compound,effect on steroid-induced skin atrophy (rat skin),"IOP at 3 hours, Mean (SEM) [4]","IOP at 4 hours, Mean (SEM) [4]",decrease in IOP compared to vehicle-treated group [4],"effect on intraocular pressure, topical (intraocular pressure; 1% suspension eyedrops topically, after 4-13 weeks of treatment)","effect on intraocular pressure, subconjunctival injection (intraocular pressure; 1% suspension injected subconjunctivally)",binding to GR receptors in iris-ciliary body [5]
1330,531,50.4,5.64,2.82,–,–,"COc1cccc2c1-c1ccc(NS(C)(=O)=O)cc1C(c1cccc(C)c1)O2 (stereo not drawn) [Compound A-362947, N-[1-methoxy-6-(3-methylphenyl)-6H-benzo{c}chromen-8-yl]methanesulfonamide]",–,–,–,–,–,–,–
–,–,–,–,–,–,–,"CC#C[C@]1(O)CC[C@H]2[C@@H]3CCC4=CC(=O)CCC4=C3[C@@H](c3ccc(N(C)C)cc3)C[C@@]21C [RU486, Mifepristone]",blocked atrophogenic effect of the topical steroid without affecting its anti-inflammatory effect,11.67 (1.23) mm Hg,11.83 (1.19) mm Hg,did not induce a statistically significant decrease in IOP,falls in intraocular pressure have been noted,falls in intraocular pressure were reported,specifically blocks the binding of the GR agonist triamcinolone
4.46,1.79,–,1.12,0.56,17.3,2.55,CC#C[C@]1(O)CC[C@H]2[C@@H]3CCC4=CC(=O)CCC4=C3[C@@H](c3ccc(NC)cc3)C[C@@]21C [RU42633],–,–,–,–,–,–,–
10.6,4.24,–,1.74,0.87,80.9,12.6,CN(C)c1ccc([C@H]2C[C@@]3(C)[C@@H](CC[C@]3(O)C#CCO)[C@@H]3CCC4=CC(=O)CCC4=C32)cc1 [RU42698],–,11.83 (0.40) * mm Hg,11.83 (0.31) * mm Hg,induced a significant decrease,–,–,–
15.9,6.37,–,1.36,0.68,58.3,8.6,CC#C[C@]1(O)CC[C@H]2[C@@H]3CCC4=CC(=O)CCC4=C3[C@@H](c3ccc(N)cc3)C[C@@]21C [RU42848],–,11.67 (0.49) * mm Hg,11.50 (0.34) * mm Hg,induced a significant decrease in IOP,–,–,–

# From patent publication US20100298282A1, “Treatment of Ocular Conditions and the Side-Effects of Glucocorticoids” (priority 2006, published 2010)
